For 2 compounds, IC50 results are on record in patent US9556147B2 (Hoffmann-La Roche Inc., priority 2013, dated 2017).

pIC50: −log10 of the molar value.

The subject of the assay is B cell receptor-mediated activation of B cells in human whole blood (CD69 expression). Description: cells. As to conditions: 20 h, read-out: HWB IC50. Here is the method: After the incubation the plates were read on a BMG Pherastar Fluorescent plate reader (or equivalent) and used to measure the emission energy from the europium donor fluorophore (620 nm emission) and the FRET (665 nm emission). The negative control well values were averaged to obtain the mean minimum. The positive “no inhibitor” control wells were averaged to obtain the mean maximum. […] The mean IC50 and standard deviation will be derived from duplicate curves (singlet inhibition curves from two independent dilutions) using Microsoft Excel. Inhibition of B Cell Activation in Whole Blood Measured by CD69 Expression
Human whole blood (HWB) is obtained from healthy volunteers, with the following restrictions: 24 hr drug-free, non-smokers. Blood is collected by venipuncture into Vacutainer tubes anticoagulated with sodium heparin. Test compounds are diluted to ten times the desired starting drug concentration in PBS (20×), followed by three-fold serial dilutions in 10% DMSO in PBS to produce a nine point dose-response curve. […] HWB (100 μl) is added to each well, and after mixing the plates are incubated at 37 C, 5% CO2, 100% humidity for 30 minutes. […]
Using appropriate excitation and emission wavelengths for the fluorophores used, data are acquired and percent positive cell values are obtained using Cell Quest Software. Results are initially analyzed by FACS analysis software (Flow Jo).

As usually defined, the pIC50 is −log10 of the IC50, conventionally taken in molar units. In the case of `CN1CCC[C@H]1c1ccc(Nc2cc3c(n(C)c2=O)CC(O)Cc2c-3cccc2-n2ncc3cc(C(C)(C)C)cc(F)c3c2=O)nc1` (some centres unmarked) [Compound 2], the negative logarithm of the IC50 (pIC50) was 7.31.
Take `Cn1c2c(cc(Nc3ccc(C(=O)N4CCOCC4)cn3)c1=O)-c1cccc(-n3ncc4cccc(F)c4c3=O)c1C[C@H](O)C2` [Compound 6]: the pIC50 is 5.36.
